Measurements taken from patent US4245106A, “Process for the preparation of 1-alkyl-3-aryl-4-pyrazolecarboxylates” (Monsanto Company, priority 1979, dated 1981).

Tests used:
Assay type in all cases: in vivo
[1] = test system: Velvetleaf; test: pre-emergent herbicidal activity test
Protocol: (§1) Table II summarizes results of tests conducted to determine the pre-emergent as well as the post-emergent herbicidal activity of the compounds. The pre-emergent test was conducted as follows:
(§2) A good grade of top soil was placed in aluminum pans and compacted to a depth of three-eighths to one-half inch from the top of the pan. On the top of the soil was placed a predetermined number of seeds or vegetative propagules of various plant species. The soil required to level fill the pans after seeding or adding vegetative propagules was weighed into a pan. A known amount of the active ingredient applied in a solvent or as a wettable powder and the soil were thoroughly mixed, and used as a cover layer for prepared pans. After treatment the pans were moved into a greenhouse bench where they were watered from below as needed to give adequate moisture for germination and growth.
(§3) A herbicial rating code was used to signify the extent of phytotoxicity of each species. The rating are defined as follows: […]

[2] = test system: Bromus tectorum; test: pre-emergent herbicidal activity test
Protocol: as §1, §2, §3

[3] = test system: Cocklebur; test: pre-emergent herbicidal activity test
Protocol: as §1, §2, §3

[4] = test system: Morningglory; test: pre-emergent herbicidal activity test
Protocol: as §1, §2, §3

[5] = test system: Nutsedge; test: pre-emergent herbicidal activity test
Protocol: as §1, §2, §3

[6] = test system: Lambsquarter; test: pre-emergent herbicidal activity test
Protocol: as §1, §2, §3

[7] = test system: Quackgrass; test: pre-emergent herbicidal activity test
Protocol: as §1, §2, §3

[8] = test system: Barnyard grass; test: pre-emergent herbicidal activity test
Protocol: as §1, §2, §3

[9] = test system: Canada Thistle; test: pre-emergent herbicidal activity test
Protocol: as §1, §2, §3

[10] = test system: Johnsongrass; test: pre-emergent herbicidal activity test
Protocol: as §1, §2, §3

[11] = test system: Smartweed; test: pre-emergent herbicidal activity test
Protocol: as §1, §2, §3

[12] = test system: Velvetleaf; test: post-emergent herbicidal activity test
Protocol: (§4) The post-emergent tests were conducted as follows. The active ingredients are applied in spray form to two or three-week old specimens of various plant species. The spray, a solution or wettable powder suspension containing the appropriate rate of active ingredient to give the desired test rate and a surfactant, is applied to the plants. The treated plants are placed in a greenhouse and unless otherwise noted approximately four weeks later the effects are observed and recorded.

[13] = test system: Bromus tectorum; test: post-emergent herbicidal activity test
Protocol: as §4

[14] = test system: Cocklebur; test: post-emergent herbicidal activity test
Protocol: as §4

[15] = test system: Morningglory; test: post-emergent herbicidal activity test
Protocol: as §4

[16] = test system: Nutsedge; test: post-emergent herbicidal activity test
Protocol: as §4

[17] = test system: Lambsquarter; test: post-emergent herbicidal activity test
Protocol: as §4

[18] = test system: Quackgrass; test: post-emergent herbicidal activity test
Protocol: as §4

[19] = test system: Barnyard grass; test: post-emergent herbicidal activity test
Protocol: as §4

[20] = test system: Canada Thistle; test: post-emergent herbicidal activity test
Protocol: as §4

[21] = test system: Johnsongrass; test: post-emergent herbicidal activity test
Protocol: as §4

[22] = test system: Smartweed; test: post-emergent herbicidal activity test
Protocol: as §4

[23] = 11.2 Kg/Ha, approximately 28 days after seeding and treating
[24] = *11.2 Kg/Ha, observed approximately 14 days after treatment
[25] = 11.2 Kg/Ha, approximately four weeks later
Also: ranges in brackets are in %.

CCOC(=O)c1cn(CC)nc1-c1cccc(C(F)(F)F)c1 [Example 1]
Pre-Emergent herbicidal rating, C Velvetleaf [1, 23]: 3 (75-100) | Pre-Emergent herbicidal rating, C Velvetleaf [1, 24]: 3 (75-100) | Pre-Emergent herbicidal rating, J Bromus tectorum [2, 23]: 1 (25-49) | Pre-Emergent herbicidal rating, J Bromus tectorum [2, 24]: 2 (50-74) | Pre-Emergent herbicidal rating, B Cocklebur [3, 23]: 0 (0-24) | Pre-Emergent herbicidal rating, B Cocklebur [3, 24]: 1 (25-49) | Pre-Emergent herbicidal rating, D Morningglory [4, 23]: 0 (0-24) | Pre-Emergent herbicidal rating, D Morningglory [4, 24]: 2 (50-74) | Pre-Emergent herbicidal rating, G Nutsedge [5, 23]: 0 (0-24) | Pre-Emergent herbicidal rating, G Nutsedge [5, 24]: 0 (0-24) | Pre-Emergent herbicidal rating, E Lambsquarter [6, 23]: 3 (75-100) | Pre-Emergent herbicidal rating, E Lambsquarter [6, 24]: 3 (75-100) | Pre-Emergent herbicidal rating, H Quackgrass [7, 23]: 0 (0-24) | Pre-Emergent herbicidal rating, H Quackgrass [7, 24]: 1 (25-49) | Pre-Emergent herbicidal rating, K Barnyard grass [8, 23]: 3 (75-100) | Pre-Emergent herbicidal rating, K Barnyard grass [8, 24]: 3 (75-100) | Pre-Emergent herbicidal rating, A Canada Thistle [9, 23]: 1 (25-49) | Pre-Emergent herbicidal rating, A Canada Thistle [9, 24]: 1 (25-49) | Pre-Emergent herbicidal rating, I Johnsongrass [10, 23]: 0 (0-24) | Pre-Emergent herbicidal rating, I Johnsongrass [10, 24]: 0 (0-24) | Pre-Emergent herbicidal rating, F Smartweed [11, 23]: 1 (25-49) | Pre-Emergent herbicidal rating, F Smartweed [11, 24]: 3 (75-100) | Post-Emergent herbicidal rating, C Velvetleaf [12, 25]: 1 (25-49) | Post-Emergent herbicidal rating, C Velvetleaf [12, 24]: 1 (25-49) | Post-Emergent herbicidal rating, J Bromus tectorum [13, 25]: 0 (0-24) | Post-Emergent herbicidal rating, J Bromus tectorum [13, 24]: 1 (25-49) | Post-Emergent herbicidal rating, B Cocklebur [14, 25]: 1 (25-49) | Post-Emergent herbicidal rating, B Cocklebur [14, 24]: 1 (25-49) | Post-Emergent herbicidal rating, D Morningglory [15, 25]: 1 (25-49) | Post-Emergent herbicidal rating, D Morningglory [15, 24]: 1 (25-49) | Post-Emergent herbicidal rating, G Nutsedge [16, 25]: 0 (0-24) | Post-Emergent herbicidal rating, G Nutsedge [16, 24]: 1 (25-49) | Post-Emergent herbicidal rating, E Lambsquarter [17, 25]: 1 (25-49) | Post-Emergent herbicidal rating, E Lambsquarter [17, 24]: 1 (25-49) | Post-Emergent herbicidal rating, H Quackgrass [18, 25]: 0 (0-24) | Post-Emergent herbicidal rating, H Quackgrass [18, 24]: 1 (25-49) | Post-Emergent herbicidal rating, K Barnyard grass [19, 25]: 0 (0-24) | Post-Emergent herbicidal rating, K Barnyard grass [19, 24]: 1 (25-49) | Post-Emergent herbicidal rating, A Canada Thistle [20, 25]: 1 (25-49) | Post-Emergent herbicidal rating, A Canada Thistle [20, 24]: 1 (25-49) | Post-Emergent herbicidal rating, I Johnsongrass [21, 25]: 0 (0-24) | Post-Emergent herbicidal rating, I Johnsongrass [21, 24]: 1 (25-49) | Post-Emergent herbicidal rating, F Smartweed [22, 25]: 0 (0-24) | Post-Emergent herbicidal rating, F Smartweed [22, 24]: 1 (25-49)

CCOC(=O)c1cn(C)nc1-c1cc(C(F)(F)F)cc(C(F)(F)F)c1 [Example 10]
Pre-Emergent herbicidal rating, C Velvetleaf [1, 23]: 0 (0-24) | Pre-Emergent herbicidal rating, C Velvetleaf [1, 24]: 1 (25-49) | Pre-Emergent herbicidal rating, J Bromus tectorum [2, 23]: 1 (25-49) | Pre-Emergent herbicidal rating, J Bromus tectorum [2, 24]: 1 (25-49) | Pre-Emergent herbicidal rating, B Cocklebur [3, 23]: 0 (0-24) | Pre-Emergent herbicidal rating, B Cocklebur [3, 24]: 0 (0-24) | Pre-Emergent herbicidal rating, D Morningglory [4, 23]: 0 (0-24) | Pre-Emergent herbicidal rating, D Morningglory [4, 24]: 1 (25-49) | Pre-Emergent herbicidal rating, G Nutsedge [5, 23]: 0 (0-24) | Pre-Emergent herbicidal rating, G Nutsedge [5, 24]: 0 (0-24) | Pre-Emergent herbicidal rating, E Lambsquarter [6, 23]: 3 (75-100) | Pre-Emergent herbicidal rating, E Lambsquarter [6, 24]: 3 (75-100) | Pre-Emergent herbicidal rating, H Quackgrass [7, 23]: 0 (0-24) | Pre-Emergent herbicidal rating, H Quackgrass [7, 24]: 0 (0-24) | Pre-Emergent herbicidal rating, K Barnyard grass [8, 23]: 2 (50-74) | Pre-Emergent herbicidal rating, K Barnyard grass [8, 24]: 3 (75-100) | Pre-Emergent herbicidal rating, A Canada Thistle [9, 23]: 0 (0-24) | Pre-Emergent herbicidal rating, A Canada Thistle [9, 24]: 1 (25-49) | Pre-Emergent herbicidal rating, I Johnsongrass [10, 23]: 0 (0-24) | Pre-Emergent herbicidal rating, I Johnsongrass [10, 24]: 0 (0-24) | Pre-Emergent herbicidal rating, F Smartweed [11, 23]: 0 (0-24) | Pre-Emergent herbicidal rating, F Smartweed [11, 24]: 1 (25-49) | Post-Emergent herbicidal rating, C Velvetleaf [12, 25]: 0 (0-24) | Post-Emergent herbicidal rating, C Velvetleaf [12, 24]: 1 (25-49) | Post-Emergent herbicidal rating, J Bromus tectorum [13, 25]: 0 (0-24) | Post-Emergent herbicidal rating, J Bromus tectorum [13, 24]: 0 (0-24) | Post-Emergent herbicidal rating, B Cocklebur [14, 25]: 2 (50-74) | Post-Emergent herbicidal rating, B Cocklebur [14, 24]: 2 (50-74) | Post-Emergent herbicidal rating, D Morningglory [15, 25]: 2 (50-74) | Post-Emergent herbicidal rating, D Morningglory [15, 24]: 2 (50-74) | Post-Emergent herbicidal rating, G Nutsedge [16, 25]: 0 (0-24) | Post-Emergent herbicidal rating, G Nutsedge [16, 24]: 0 (0-24) | Post-Emergent herbicidal rating, E Lambsquarter [17, 25]: 2 (50-74) | Post-Emergent herbicidal rating, E Lambsquarter [17, 24]: 1 (25-49) | Post-Emergent herbicidal rating, H Quackgrass [18, 25]: 0 (0-24) | Post-Emergent herbicidal rating, H Quackgrass [18, 24]: 0 (0-24) | Post-Emergent herbicidal rating, K Barnyard grass [19, 25]: 1 (25-49) | Post-Emergent herbicidal rating, K Barnyard grass [19, 24]: 0 (0-24) | Post-Emergent herbicidal rating, A Canada Thistle [20, 25]: 1 (25-49) | Post-Emergent herbicidal rating, A Canada Thistle [20, 24]: 2 (50-74) | Post-Emergent herbicidal rating, I Johnsongrass [21, 25]: 0 (0-24) | Post-Emergent herbicidal rating, I Johnsongrass [21, 24]: 0 (0-24) | Post-Emergent herbicidal rating, F Smartweed [22, 25]: 0 (0-24) | Post-Emergent herbicidal rating, F Smartweed [22, 24]: 1 (25-49)
